Measured values taken from publication PMC9204298, “Inhibiting UCH-L5: Rational Design of a Cyclic Ubiquitin-Based Peptide Inhibitor” (Frontiers in Molecular Biosciences, 2022).
Where a SMILES comes first, the peptide text is derived from it. The star is where a group is joined. Cbz = O=C(OCc1ccccc1)*

Test system: MCF7 cells, level of ubiquitinated substrates
Test: Western blot of ubiquitinated substrates in MCF7 cells
Assay type: cell-based
Details: control, n = 3, Figures 7A,B
Experimental: DMSO was used as vehicle control. Following the end of the incubation times, MCF7 cells were harvested using 3X NuPAGE SDS Sample buffer (Invitrogen, Cat# NP0007) containing β-mercaptoethanol and 1x DNAse and sonicated in Bioruptor Pico sonicator (Diagenode) (10-sec pulse on, 10 s pulse off for 10 cycles). After boiling them at 95°C for 10 min, the samples run on 4–12% SDS-PAGE agarose gel using MOPS buffer. Proteins were transferred to the nitrocellulose membrane. Ubiquitinated substrates were detected using a mouse anti-ubiquitin (P4D1) antibody (Santa Cruz, Cat# sc-8017). Mouse anti-β-actin (Sigma-Aldrich, Cat# A5441, in 1:10000 dilution) was used to detect actin as a loading control. 800CW goat anti-mouse IgG (H + L) (Li-COR, Cat# 926–32210, 1:5000) were used as secondary antibodies. The signal was detected using direct imaging by Odyssey® CLx Infrared Imaging System (LI-COR). The experiment was repeated in triplicates. The total amount of ubiquitinated substrates and the actin level was quantified using Licor Image studio densitometry software, and the total level of ubiquitinated substrates was normalized to the actin level.

CC(C)C[C@@H](C=O)NC(=O)[C@H](CC(C)C)NC(=O)[C@H](CC(C)C)NC(=O)OCc1ccccc1 [MG132] (Cbz-Leu-Leu-Leu-aldehyde)
level of ubiquitinated substrates (MG132 5 µM, 4 h): increased the level of ubiquitinated substrates

C=CC(=O)N1C/C(=C\c2ccc([N+](=O)[O-])cc2)C(=O)/C(=C/c2ccc([N+](=O)[O-])cc2)C1 [bAP15]
level of ubiquitinated substrates (bAP15 1 µM, 3 h): increased the level of ubiquitinated substrates
